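Cultured in 96-well plates, cells were exposed to test compound for 48 hours across five concentrations. GI50 is the concentration that inhibits growth by half.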 Active and inactive are the calls of the source. Cut-off read from the data, not from the text of the source: active = GI50 up to about 1.1 µM and inactive = higher.
Columns and labels:
Assay in all cases: NCI tumour cell line growth inhibition, 48 h
COLO 205 = system: COLO 205
KM12 = system: KM12
A498 = system: A498
HT-29 = system: HT-29
SK-MEL-2 = system: SK-MEL-2
SW-620 = system: SW-620
MOLT-4 = system: MOLT-4
OVCAR-3 = system: OVCAR-3
HCC 2998 = system: HCC 2998
HOP-92 = system: HOP-92
NCI-H23 = system: NCI-H23
RXF 393 = system: RXF 393
HCT-15 = system: HCT-15
NCI-H522 = system: NCI-H522
K562 = system: K562

Structure (SMILES) | GI50 (COLO 205) | GI50 (KM12) | GI50 (A498) | GI50 (HT-29) | GI50 (SK-MEL-2) | GI50 (SW-620) | GI50 (MOLT-4) | GI50 (OVCAR-3) | GI50 (HCC 2998) | GI50 (HOP-92) | GI50 (NCI-H23) | GI50 (RXF 393) | GI50 (HCT-15) [µM] | GI50 (NCI-H522) | GI50 (K562)
O=C1/C(=C/c2ccccc2)CCCC/C1=C\c1ccccc1 | 39.2 µM (inactive) | 41.2 µM (inactive) | > 100 µM (inactive) | 16.2 µM (inactive) | 47.9 µM (inactive) | 58.5 µM (inactive) | 27.7 µM (inactive) | > 100 µM (inactive) | 48.5 µM (inactive) | 40.1 µM (inactive) | 45.1 µM (inactive) | 27.2 µM (inactive) | 32.9 |  | 
c1cc2c(cc1C1OCC3C(c4ccc5c(c4)OCO5)OCC13)OCO2 (stereo not drawn) | 67.8 µM (inactive) | 58.9 µM (inactive) | 55.3 µM (inactive) | 35.6 µM (inactive) | 98.2 µM (inactive) | > 100 µM (inactive) | 34.1 µM (inactive) | 84.1 µM (inactive) | 71.1 µM (inactive) | 69.7 µM (inactive) | 38.5 µM (inactive) | 57.9 µM (inactive) | 50.6 | 65.8 µM (inactive) | 35.6 µM (inactive)
CCOC(=O)C(=CNC(Cc1c[nH]c2ccccc12)C(=O)OC)C(=O)OCC (stereo not drawn) | > 100 µM (inactive) |  | > 100 µM (inactive) | > 100 µM (inactive) | 63.8 µM (inactive) | > 100 µM (inactive) | > 100 µM (inactive) | > 100 µM (inactive) |  | 16.6 µM (inactive) | > 100 µM (inactive) |  | > 100 | > 100 µM (inactive) | > 100 µM (inactive)
C#CCOc1c(C(=O)OCC)c(=O)n(C)c2ccccc12 | > 100 µM (inactive) |  | > 100 µM (inactive) | > 100 µM (inactive) | > 100 µM (inactive) | > 100 µM (inactive) | > 100 µM (inactive) | > 100 µM (inactive) |  | 70 µM (inactive) | > 100 µM (inactive) |  | > 100 | > 100 µM (inactive) | > 100 µM (inactive)
COC(=O)CC(c1ccccc1)C1(c2ccccc2)SCCS1 (stereo not drawn) | > 290 µM (inactive) | 108 µM (inactive) |  | 222 µM (inactive) | 261 µM (inactive) | 232 µM (inactive) | 58.1 µM (inactive) | 55.1 µM (inactive) | > 290 µM (inactive) | 12.6 µM (inactive) | 130 µM (inactive) | > 290 µM (inactive) | 94.8 | 106 µM (inactive) | 133 µM (inactive)
COC(=O)c1nn(C(=N)c2ccc(Cl)cc2)c2c1CCC2 | > 100 µM (inactive) | > 100 µM (inactive) | > 100 µM (inactive) | > 100 µM (inactive) | > 100 µM (inactive) | > 100 µM (inactive) | > 100 µM (inactive) |  | > 100 µM (inactive) | > 100 µM (inactive) | > 100 µM (inactive) | > 100 µM (inactive) | > 100 | > 100 µM (inactive) | > 100 µM (inactive)
CCCCN(CCCC)C(=O)/C(CC(=O)c1cccc2ccccc12)=N\NC(=O)c1cc2ccccc2cc1O | 23 µM (inactive) | 24.8 µM (inactive) |  | 23.8 µM (inactive) | 14.1 µM (inactive) | 32 µM (inactive) | 7.83 µM (inactive) | 14.4 µM (inactive) | 16.3 µM (inactive) | 19.2 µM (inactive) | 19.9 µM (inactive) | 24.8 µM (inactive) |  |  | 
COC1C=COC2(C)Oc3c(C)c(O)c4c(O)c(c(/C=N/N5CCN(N)CC5)c(O)c4c3C2=O)NC(=O)C(C)=CC=CC(C)C(O)C(C)C(O)C(C)C(OC(C)=O)C1C (stereo not drawn) | 37.8 µM (inactive) | 68.4 µM (inactive) | > 100 µM (inactive) | 38.4 µM (inactive) | > 100 µM (inactive) | 48 µM (inactive) | 39 µM (inactive) |  | > 100 µM (inactive) | 65.6 µM (inactive) | 31.9 µM (inactive) | 34.7 µM (inactive) | 80.7 | 34 µM (inactive) | 44.4 µM (inactive)
N=S(=O)(c1ccccc1)c1ccccc1 | > 100 µM (inactive) | > 100 µM (inactive) | > 100 µM (inactive) | > 10 µM (inactive) | > 100 µM (inactive) | > 100 µM (inactive) | 22 µM (inactive) | > 100 µM (inactive) | > 100 µM (inactive) |  | > 100 µM (inactive) |  |  | > 100 µM (inactive) | 28.2 µM (inactive)
O=C1CCCCCCCCCCC(=O)C2CCOCCOCCOCCC1Cc1cccc(n1)C2 | 93.3 µM (inactive) | 59.3 µM (inactive) | 82.8 µM (inactive) | > 100 µM (inactive) | > 100 µM (inactive) | > 100 µM (inactive) | 31.6 µM (inactive) | 40.6 µM (inactive) | 46.1 µM (inactive) |  | > 100 µM (inactive) | 32 µM (inactive) | 83.2 | 43.9 µM (inactive) | 50.1 µM (inactive)
CC(SC1=CC(=O)c2c(Cl)ccc(O)c2C1=O)C(=O)O (stereo not drawn) | 21.3 µM (inactive) | 18 µM (inactive) | 67.1 µM (inactive) | > 10 µM (inactive) | 17.5 µM (inactive) | 19.4 µM (inactive) | 18.5 µM (inactive) |  | 21.3 µM (inactive) | 21.6 µM (inactive) | > 10 µM (inactive) | > 10 µM (inactive) | 17.1 |  | 18.7 µM (inactive)
CCCOc1nc(N)c2cnn(C3CCCCO3)c2n1 (stereo not drawn) | > 100 µM (inactive) | > 100 µM (inactive) |  | > 100 µM (inactive) | > 100 µM (inactive) | > 100 µM (inactive) | > 100 µM (inactive) | > 100 µM (inactive) | > 100 µM (inactive) | > 100 µM (inactive) | > 100 µM (inactive) | > 100 µM (inactive) | > 100 | > 100 µM (inactive) | > 100 µM (inactive)
O=C1C(=O)N(c2cc(Cl)ccc2Cl)C(=O)C(=O)C1c1nc2ccccc2s1 | > 100 µM (inactive) | > 100 µM (inactive) | > 100 µM (inactive) | > 100 µM (inactive) | > 100 µM (inactive) | > 100 µM (inactive) |  | > 100 µM (inactive) |  | 24.4 µM (inactive) | > 100 µM (inactive) | > 100 µM (inactive) | > 100 | > 100 µM (inactive) | 93.1 µM (inactive)
CC(C)(C)[Si](C)(C)O/N=C\c1cccc(O[Si](C)(C)C(C)(C)C)c1 | 17.8 µM (inactive) | 18 µM (inactive) |  | 16.5 µM (inactive) | 17.9 µM (inactive) | 18.5 µM (inactive) | 18.1 µM (inactive) | 16.2 µM (inactive) | 18.3 µM (inactive) | 15.5 µM (inactive) |  | 19.6 µM (inactive) | 19.2 |  | 18.1 µM (inactive)
CCCCN/C(=N\C#N)N(Cc1ccccc1)Cc1ccccc1 | 18.4 µM (inactive) | 28.2 µM (inactive) | 17.3 µM (inactive) | 14.7 µM (inactive) | 15.2 µM (inactive) | 16 µM (inactive) | 17.5 µM (inactive) | 23.8 µM (inactive) | 11.9 µM (inactive) | 17.6 µM (inactive) | 24.6 µM (inactive) | 45.2 µM (inactive) | 16.3 | 15 µM (inactive) | 16.6 µM (inactive)
CN(C)C(=S)/N=c1\ss/c(=N\C(=S)N(C)C)n1-c1ccc2c(c1)OCO2 |  | > 100 µM (inactive) | > 100 µM (inactive) |  | > 100 µM (inactive) | > 100 µM (inactive) |  | > 100 µM (inactive) | > 100 µM (inactive) |  | > 100 µM (inactive) | > 100 µM (inactive) | > 100 | 15.6 µM (inactive) | 4.86 µM (inactive)
COC(=O)C(CC(=O)c1c[nH]c2ccccc12)c1c[nH]c2ccccc12 (stereo not drawn) |  | > 10 µM (inactive) | 20.3 µM (inactive) | 16.9 µM (inactive) | 20.1 µM (inactive) | 22.8 µM (inactive) | 16.2 µM (inactive) | > 10 µM (inactive) | 23 µM (inactive) |  | 16.7 µM (inactive) | 14 µM (inactive) | 16.4 |  | 18.1 µM (inactive)
COc1cc2c[n+](C)c3c4cc(OC)c(OC(C)C)cc4ccc3c2cc1OC | 10.5 µM (inactive) | 29.8 µM (inactive) |  | 49.3 µM (inactive) | 20.1 µM (inactive) | 36.3 µM (inactive) | 50.5 µM (inactive) | 10.5 µM (inactive) | 44.2 µM (inactive) | 73.6 µM (inactive) | 48.6 µM (inactive) | > 100 µM (inactive) | > 100 | 16.9 µM (inactive) | 32.3 µM (inactive)
CC(C)(C)C(=O)/C=C/c1cccc(Oc2ccccc2)c1 |  | 11.6 µM (inactive) | 20 µM (inactive) | 9.12 µM (inactive) | 13.1 µM (inactive) | > 10 µM (inactive) | 14.6 µM (inactive) |  | 19 µM (inactive) |  | > 10 µM (inactive) | 15 µM (inactive) | 19.4 | 15.3 µM (inactive) | 5.93 µM (inactive)
COC1[C@@H](OC(C)=O)[C@@H](NC(=O)C(Cl)(Cl)Cl)C(I)[C@@H](N2C(=O)c3ccccc3C2=O)[C@H]1OC (stereo partly drawn) | > 100 µM (inactive) | 6.59 µM (inactive) | 48.6 µM (inactive) | > 100 µM (inactive) |  | > 100 µM (inactive) | > 100 µM (inactive) |  |  | 47.5 µM (inactive) | > 100 µM (inactive) | > 100 µM (inactive) | > 100 | > 100 µM (inactive) | > 100 µM (inactive)
CN(c1n[n+]2c(-c3ccccc3)csc2s1)c1n[n+]2c(-c3ccccc3)csc2s1 | 46.7 µM (inactive) | > 100 µM (inactive) |  | > 100 µM (inactive) | > 100 µM (inactive) | > 100 µM (inactive) | > 100 µM (inactive) | > 100 µM (inactive) | > 100 µM (inactive) | > 100 µM (inactive) | > 100 µM (inactive) | > 100 µM (inactive) | 0.144 | 33.7 µM (inactive) | 42.8 µM (inactive)

Reference: ChEMBL document CHEMBL1201862, “PubChem BioAssay data set” (2004)
